What all share (format): in vivo
One assay has as its system cardiomyocytes. In words: Cardiomyocyte proliferation effect assay (Edu), 13-month-old C57 mice. Conditions: aged (13-month-old) female mice; IGF1-24 100 μg/kg for 7 days; PBS group 0.5%; FIG. 3. On the procedure: (§1) Female 13-month-old mice were divided into 2 groups, PBS group and IGF1-24 group, with 6 mice in each group, and the mice in each group were distinguished by ear tags for subsequent protein injection according to the different body weights of the mice. The mice in each group were injected with PBS and IGF1-24 for 7 consecutive days, and the recombinant protein IGF1-24 was injected at 100 μg/kg. After seven days of protein injection, Edu solution at a concentration of […] was injected intraperitoneally for seven consecutive days, so that the final total dose of each mouse reached 50 mg/kg. […]

For a further assay, the system named is neuronal cells. In words: Neuroproliferation and neural differentiation (Edu / DCX, hippocampal dentate gyrus), 13-month-old C57 mice. On the procedure: as §1
Remove frozen sections from −20° C. and restore to room temperature; wash 3 times 10 min/time with PBS; permeabilize sections in 0.5% Triton for 30 min; wash 3 times 10 min/time with PBS; draw circles around the tissue with an immunohistochemistry pen and add 5% BSA dropwise for 1 h; aspirate 5% BSA and incubate at 4° C. with double cortin DCX primary antibody (1:500) dropwise overnight; PBS wash 3 times for 10 min/time; incubate FITC secondary antibody for 1 h; PBS wash 3 times for 10 min/time; incubate Edu dye for 1 h; PBS wash 3 times for 10 min/time; incubate DAPI for 10 min; PBS wash 3 times for 10 min/time; observe fluorescence under fluorescence microscope. […]

The subject of another assay is skeletal muscle cells. In words: Skeletal muscle cell proliferation effect (Edu / Desmin immunofluorescence of gastrocnemius muscle), SD rats. Conditions: gastrocnemius muscle sections, FIG. 8. As for the experimental part:
In certain embodiments, adult female SD rats were divided into five groups: PBS group, IGF1 group, IGF1Ec group, IGF1-24 group, and IGF1+IGF1Ec24 peptide group, with three rats in each group. The rats in each group were distinguished by ear clipping for subsequent protein injection according to the different body weights of the rats.
The rats in each group were injected with PBS, IGF1, IGF1Ec24 peptide, IGF1Ec and IGF1-24 for 7 consecutive days. Recombinant protein IGF1-24 was injected at 100 μg/kg, and the injection of the remaining proteins in each group was converted according to the molar amount of IGF1-24 injection as follows: 90 μg/kg for IGF1, 8.9 μg/kg for IGF1Ec24 peptide, 104 μg/kg for IGF1Ec.
After seven days of protein injection, the intraperitoneal injection of Edu solution at a concentration of 2.5 mg/kg was performed for seven days, so that the final total dose of each rat reached 50 mg/kg. […]

For “IGF1-24: 97 amino acids: amino-terminal 70 identical to IGF1, carboxyl-terminal 24 identical to IGFEc24 peptide, joined by three Gly linkers (SEQ ID NO: 4)”, the “number of Edu-positive cardiomyocytes” value in the assay on cardiomyocytes is recorded as 1.5%. Besides, the “immature neuronal cells (neural differentiation assay)” value in the assay with neuronal cells (PBS group 0.68%, FIG. 7) was found to be 1.01%. Moreover, the “proliferation of neuronal cells” value in the assay on neuronal cells (hippocampal dentate gyrus, PBS group 0.24%, FIG. 5-6) is listed as 0.47%. Moreover, in the assay with skeletal muscle cells, the “number of Edu-positive skeletal muscle cells per square millimeter” value came to 28 per square millimeter.

Values taken from patent US20230073755A1, “USE OF IGF1 IN COMBINATION WITH IGFEC24 IN PREPARATION OF MEDICINE FOR PROMOTING TISSUE REPAIR AND REGENERATION” (Chongqing University, priority 2020, published 2023).
